Entries after “also recorded” stand apart in the source; their conditions may differ. Where two headings read alike, the source gives them in different places.

The test system of one assay is BS-C-1 cells. The assay can be described thus: fluorescence microscopy and live imaging of BS-C-1 cells. Type of assay: cell-based, monkey. The note with it: BS-C-1 cells; 1A at 40 μM for 4 hours.
For assay [1], the system named is microtubules. Briefly: cold depolymerization of microtubules in cells. It is filed as cell-based. Conditions: 4° C., 0.5 h, taxol 10 μM, 4 h, synstab A 25 μM. The source says: (§1) Since taxol and discodermolide prevent cold depolymerization of microtubules (Hung et al., Chem. Biol. 3:287, 1996), we tested whether synstab A-treatment of cells would cause a similar effect. […] This mutually exclusive binding is consistent with the observed taxol-like effects of synstab A on cells and on purified microtubules.

The next assay has as its system TG-3 staining. The assay can be described thus: fluorescence-activated cell sorting and TG-3 immunoblotting. The note with it: concentrations that do not affect viability. Type of assay: cell-based.
The next assay concerns phosphonucleolin. The assay can be described thus: phosphonucleolin cytoblot, suppression of nocodazole-induced mitotic arrest. Type of assay: cell-based, human. Conditions: A549 cells; pretreated 8 hour, then 250 nM nocodazole 12 hours. The protocol:
FIG. 10. The ability of anti-proliferative agents such as juglone to suppress the effects of nocodazole-induced mitotic arrest can be detected in a cytoblot. […] (b) A549 human lung carcinoma cells were seeded at a density of 4000 cells in 40 μL of DMEM+ in each well of a white, opaque 384-well plate and incubated overnight at 37° C. with 5% CO2. Cells were either untreated or pretreated with juglone at the indicated concentrations for 8 hour. Subsequently, nocodazole at a final concentration of 250 nM was added to all wells in a final volume of 50 μL and the cells incubated for a further 12 hours. A phosphonucleolin cytoblot was performed. […] A 4 mm scale bar is shown.
The treatment of cells with any small molecule that arrests cells outside of mitosis will suppress the ability of nocodazole to arrest cells in mitosis. […] It was hypothesized that inhibition of Pin1, which is an essential, highly conserved PPIase required for proper mitotic division in Xenopus and yeast, would prevent entry into mitosis and consequently prevent accumulation of phosphonucleolin (FIG. 10a).

The test system of assay [2] is p3TPLux TGFβ-responsive reporter in 6F mink lung cells. The assay can be described thus: luciferase assay, stably transfected p3TPLux. It is filed as cell-based. The note with it: for synergy with TGFβ: 400 pM TGFβ1; for reporter gene expression: stably transfected reporter. On the procedure: FIG. 19 graphs the dose-response of transcriptional activation of compounds 1a and 2 in the presence (*) or absence (•) of 400 pM TGFβ1. 20,000 6F mink lung cells ( ) were seeded in 384 well plates, allowed to attach for 16 hours in 10% mink medium, and were treated with the indicated concentrations of 1a or 2.
We screened more than 16,000 chemical compounds to identify those that specifically activated expression of a reporter gene (luciferase) under the control of TGFβ-responsive elements in stably transfected mammalian cells (mink lung epithelial cells). […] Given the structural similarity of compounds 1a-c, we expected that all three were operating through a common mechanism. We therefore continued testing on only one, compound 1a, as representative of the group.
(In general: In a reporter assay the amount or activity of a reporter protein is the signal.)

In assay [3] the test system is control reporter responsive to NFκB. Conditions: transiently transfected. The protocol: LUCIFERASE ASSAYS: Our transient transfection luciferase assay was described previously by us (Stockwell et al., Chem Biol 5:385, 1998). Briefly, 100,000 Mv1Lu mink lung epithelial cells were transiently transfected in 12-well dishes with 400 ng p3TPLux or pNFkB-Lux, with or without 50 ng pFC-MEKK, in 300 μL minimal essential medium with non-essential amino acids. The DEAE-dextran/chloroquine/DMSO methods was used for transfection (Stockwell et al., Chem Biol 6:71, 1999). After cell lysis in 120 μL lysis buffer, a Beckman LS 6500 liquid scintillation counter was used in single photon mode to quantitate luminescence. For detection of luciferase activity in 6F cells (including the primary screen), 20,000 6F cells were seeded in 50 μL of 10% mink medium in each well of a white 384-well plate (Nalge Nune International; Naperville, Ill.; cat#164610) using a Multidrop 384 liquid dispenser (Lab Systems; Helsinki, Finland). […] After incubating the cells for five minutes on ice, 20 μL of ATP/luciferin solution was added (25 mM glycylglycine pH 7.8, 15 mM MgSO4, 4 mM EGTA, 6.25 mM K2HPO4 (Sigma; cat#P5504) pH 7.8, 5 mM DTT, 75 μM D-luciferin (Sigma, cat# L-9504, 2 mM ATP (Sigma; cat#A-7699)). Light output was immediately measured with an Analyst 384-well platereader (LJL), with 0.5 second counting time per well.

Assay [4] relates to transiently transfected TGFβ-responsive reporter. The assay can be described thus: transient transfection luciferase assay, p3TPLux. It is filed as cell-based, mink. The protocol:
LUCIFERASE ASSAYS: Our transient transfection luciferase assay was described previously by us (Stockwell et al., Chem Biol 5:385, 1998). Briefly, 100,000 Mv1Lu mink lung epithelial cells were transiently transfected in 12-well dishes with 400 ng p3TPLux or pNFkB-Lux, with or without 50 ng pFC-MEKK, in 300 μL minimal essential medium with non-essential amino acids. The DEAE-dextran/chloroquine/DMSO methods was used for transfection (Stockwell et al., Chem Biol 6:71, 1999). After cell lysis in 120 μL lysis buffer, a Beckman LS 6500 liquid scintillation counter was used in single photon mode to quantitate luminescence. For detection of luciferase activity in 6F cells (including the primary screen), 20,000 6F cells were seeded in 50 μL of 10% mink medium in each well of a white 384-well plate (Nalge Nune International; Naperville, Ill.; cat#164610) using a Multidrop 384 liquid dispenser (Lab Systems; Helsinki, Finland). After 16 hours, medium was removed using a 24 channel wand (V&P Scientific, Inc.; San Diego, Calif.; cat#VP 186L), the cells were washed with 75 μL of 0.2% mink medium (containing 0.2% FBS), and reagents were added in 40 μL of 0.2% medium. For the primary screen, reagents were added by pin transfer using 384 polypropylene pin arrays (Matrix Technologies; Hudson, N.H.). After 24 hours, the cells were cooled on ice and washed twice with 75 μL Hanks Balanced Salt Solution (HBSS; GibcoBRL; cat#24020-117). Then 20 μL lysis buffer (25 mM glycylglycine (Sigma; cat#E-0396), 1% Triton X-100 (Sigma; cat#T-9284), 1 mM dithiothreitol (DTT; Sigma; cat#D-5545), 1 mM phenylmethylsulfonyl fluoride (PMSF; Sigma; cat#P-7626)) was added to each well with a Multidrop. After incubating the cells for five minutes on ice, 20 μL of ATP/luciferin solution was added (25 mM glycylglycine pH 7.8, 15 mM MgSO4, 4 mM EGTA, 6.25 mM K2HPO4 (Sigma; cat#P5504) pH 7.8, 5 mM DTT, 75 μM D-luciferin (Sigma, cat# L-9504, 2 mM ATP (Sigma; cat#A-7699)). Light output was immediately measured with an Analyst 384-well platereader (LJL), with 0.5 second counting time per well.

The subject of assay [5] is mink lung epithelial cells. Briefly: BrdU cytoblot assay for S-phase progression. Type of assay: cell-based. The source says:
BRDU CYTOBLOT ASSAY: The BrdU cytoblot assay for S-phase progression was described previously by Stockwell et al. (Chem. Biol. 6:71, 1999; see also, U.S. Patent Application Ser. No. 60/094,305, incorporated herein by reference).
Compounds that mimic TGFβ activity would be expected to be capable of inducing cell cycle arrest or apoptosis, and in particular to block DNA replication, in responding cells. We therefore used an S-phase progression cytoblot assay to test whether our compounds could inhibit 5-bromodeoxyuridine (BrdU) incorporation into mink epithelial cells. […] Both compounds were therefore classified as true TGFβ mimics.

The subject of assay [6] is S. cerevisiae strain BY4741. On the procedure:
TRANSCRIPTIONAL PROFILING: We performed transcriptional profiling on yeast cells according to known techniques. […] We therefore set thresholds of 0.5 fold and 2.0 fold for transcriptional repression and transcriptional activation, respectively, in our experimental comparisons of untreated cells and cells treated with test compounds.
Briefly, S. cerevisiae strain BY4741 (haploid) was streaked on a YPD plate, grown for 3 days at 30° C., and used to inoculate a 50 mL overnight culture of YPD. This culture was diluted into pre-warmed YPD such that A600=0.04 and allowed to grow until A600=0.47. The culture was split into pre-warmed flasks, with 50 mL in each of three flasks and 150 mL in a fourth flask. […] The cultures were centrifuged at 2500 g at room temperature for five minutes and the pelle frozen in liquid nitrogen. Total RNA was purified from each culture by hot acidic phenol/chloroform extraction and ethanol precipitation. Poly-A RNA wad purified with a Qiagen Oligotex mRNA Midi Kit (Qiagen; Valencia, Calif.; cat#70042). Fluorescently-labeled probe was prepared from […] poly-A mRNA and applied to glass slides that had been printed with 6240 yeast ORFs (James Hardwick, Jeffrey Tong, and Stuart L. Schreiber, unpublished results). The microarray was scanned with an Array Works scanner and the results were analyzed with Gene Spring software.

Assay [7] is described as follows: UV spectral shift binding assay with 2. The note with it: UV 240-310 nm. On the procedure:
(§2) UV SPECTRAL SHIFT BINDING ASSAY: A quartz cuvette with 1 mL deionized, distilled water was used as a blank on a Cary 1E UV-visible spectrophotomer. 1a or 2 was diluted to a final concentration of 15 μM or 20 μM, respectively, and the UV spectrum from 240 nm to 320 nm was measured. […] Upon addition of certain transition metals (Table 1), this peak shifted such that the new λmax was 273 nm and 310 nm, for 1a and 2, respectively. […] For the calculation of correlation coefficients, all values less than 7.5 μM were taken to be 7.5 μM, all values greater than 1000 μM were taken to be 1000 μm and all values less than 10 μM were taken to be 10 μM.

In assay [8] the test system is microtubules. The assay can be described thus: competition with fluorescently labeled taxol. Type of assay: binding. Conditions: oregon green labeled taxol, fluorescence polarization.
From the text: as §1
Three different assays were used to confirm microtubule-stabilizing effects in the in vitro tubulin polymerization assay by repeating the above experiment. In addition, three independent experiment assessments were carried out. 1) In vitro competition experiments with fluorescence-labeled taxol. […] 2) In vivo incubation of BSCI-cells (a monkey epithelial cell line) with 40 μM 1A for four hours. In brief, BSCI cells were seeded on glass coverslips and cultured overnight. […] 3) treatment of cells with 1A resulted index by the phosphonucleolin (TG-3) cytoblot as described above as measured visually.

Assay [9] can be described thus: UV spectral shift binding assay with 1a. The note with it: UV 240-310 nm. On the procedure: as §2

From the text for BS-C-1 cells: We investigated the phenotype of mammalian cells (BS-C-I) treated with the compounds of group III. […] Our examination of the distribution of microtubules, actin, and chromatin in fixed cells by fluorescence microscopy allowed us to divide the small molecules into three classes.
We then asked whether the chromosomes surrounding the monoastral microtubule array maintain microtubule attachment.

With `CC(=O)O[C@H]1C(=O)[C@@]2(C)[C@H]([C@H](OC(=O)c3ccccc3)[C@]3(O)C[C@H](OC(=O)[C@H](O)[C@@H](NC(=O)c4ccccc4)c4ccccc4)C(C)=C1C3(C)C)[C@]1(OC(C)=O)CO[C@@H]1C[C@@H]2O` [taxol], in the assay with BS-C-1 cells, the “microtubule, spindle and chromosome phenotype” value is recorded as “less pronounced than that induced by synstab A”. Moreover, the “protection from cold depolymerization” value in the assay with microtubules [1] was “noticeably stabilized microtubules”. In the assay with TG-3 staining, the “TG-3 reactivity of total cell extracts” value was “increased TG-3 reactivity”.
As for `O=C1C=CC(=O)c2c(O)cccc21` [juglone], in the assay with phosphonucleolin, the “concentrations that prevent accumulation of phosphonucleolin” value is “greater than 25 microM”.
`O=C(NN=Cc1ccccc1O)c1ccc(O)cc1` [Compound 2, Benzoic acid, 4-hydroxy, [(2-hydroxyphenyl)methylene]hydrazide]: in assay [2], the “synergy with metals in reporter activation” value is “synergized strongly with both Cu^+ and Cu^2+ but not with other metals”; the “synergy with TGFβ” value is listed as “synergistic with TGFβ”; the reporter gene expression result is “dose-dependent increase in reporter gene expression”. Further, in assay [2] (primary screen of more than 16,000 compounds), the “activity in screen (TGFβ-responsive luciferase reporter)” value is “showed activity in our screen”. In assay [3], the “activation of NFκB-responsive control reporter” value is “Neither compound activated”. Also, the “activation of transiently versus stably transfected TGFβ-responsive reporter” value in assay [4] was “less effective”. The BrdU incorporation entry in assay [5] is “inhibited BrdU incorporation; also recorded: inhibition of BrdU incorporation”. Further, the “effect on gene expression in yeast cells” value in assay [6] is “no detectable effect on gene expression in yeast cells”. Also, the “binding of 2 to metals (shift in UV absorbance maximum)” value in [7] is “binds well to Fe^3+, Cu^2+, Cu^+, and CO^2+, and also shows some binding to Ni^2+”.
On to `CN(c1ccc2cccc(O)c2n1)c1ccc2cccc(O)c2n1` [Compound 1a, 2,2′-(methylimino)bis-8(quinolinol)], for which the “microtubule, spindle and chromosome phenotype” value in the assay with BS-C-1 cells is “showed bundling of interphasic microtubules and aberrant mitotic spindles with misaligned chromosomes”. Besides, the “competition for binding of fluorescently labeled taxol” value in the assay with microtubules [8] is “compete off bound labeled taxol”. The “synergy with TGFβ” value in assay [2] is listed as “synergistic with TGFβ”. Besides, the reporter gene expression entry in assay [2] is listed as “dose-dependent increase in reporter gene expression”. Besides, the “activation of NFκB-responsive control reporter” value in [3] was “Neither compound activated”. Besides, the “activation of transiently versus stably transfected TGFβ-responsive reporter” value in assay [4] was “less effective”. Also, the BrdU incorporation entry in [5] is “inhibited BrdU incorporation; also recorded: inhibition of BrdU incorporation”. Moreover, the “[…] IN PRESENCE OF COMPOUND […] IN ABSENCE OF COMPOUND” value amounted to 0.49 in assay [6] (gene YAL045C (ARN1), Multi-drug resistance pump, repressed genes); 2.2 in [6] (gene YBL005WA, TyA transposon, activated genes); 2.0 in [6] (gene YHL040C (ARN1), multidrug resistance pump, activated genes). In addition, the “binding of 1a to metals (shift in UV absorbance maximum)” value in [9] was “binds strongly to Zn^2+, Fe^2+, Cu^2+, Cu^+, and Al^3+, and less well to Mn^2+, Co^2+, and Ni^2+”.

The record behind these values is US20080311589A1, “METHOD OF HIGH-THROUGHPUT SCREENING OF MOLECULES AND COMPOUNDS FOR THEIR EFFECTS ON BIOLOGICAL AND CHEMICAL PROCESSES” (priority 1999, published 2008).
